Results reported in patent US20240041877A1, “DOSAGE REGIME AND METHOD FOR TREATING PULMONARY ARTERIAL HYPERTENSION” (Altavant Sciences GmbH, priority 2019, published 2024).
Where two headings read alike, the source gives them in different places.

Tests used:
[1] = Part 1 (SAD): urine pharmacokinetics (amount excreted, renal clearance) after a single oral dose of KAR5585; type: in vivo, human; conditions: for CL renal: human
Experimental: Renal clearance of KAR5417 was calculated from the area under the plasma time concentration curve (AUC0-96) for KAR5417 and the amount of KAR5417 recovered in urine (Table 21).

[2] = Cardiac conduction (QTcF) in healthy adult subjects; type: in vivo, human
[3] = KAR5585 in urine, 100 mg KAR5585 single oral dose, mean
[4] = KAR5585 in urine, 200 mg KAR5585 single oral dose, mean
[5] = KAR5585 in urine, 400 mg (Fasted) KAR5585 single oral dose, mean
[6] = KAR5585 in urine, 400 mg (Fed) KAR5585 single oral dose, mean
[7] = KAR5585 in urine, 700 mg KAR5585 single oral dose, mean

## Nc1nc(O[C@H](c2ccc(Cl)cc2-c2ccccc2)C(F)(F)F)cc(N2CCC3(CC2)CN[C@H](C(=O)O)C3)n1 [KAR5417, (S)-8-(2-amino-6-((R)-1-(5-chloro-[1,1T-biphenyl]-2-yl)-2,2,2-trifluoroeth-oxy)pyrimidin-4-yl)-2,8-diazaspiro[4.5]decane-3-carboxylic acid]
[1]; 400 mg fed Cohort (Cohort 3B)
  highest amount excreted in urine: 0.331 % of the dose
[1]; KAR5417 in urine, 100 mg KAR5585 single oral dose, mean
  Amount Excreted (Ae): 233 µg
[1]; KAR5417 in urine, 100 mg KAR5585 single oral dose, mean, assuming complete conversion of KAR5585 to KAR5417
  Total Excreted (%): 0.245%
[1]; KAR5417 in urine, 200 mg KAR5585 single oral dose, mean
  Amount Excreted (Ae): 211 µg
[1]; KAR5417 in urine, 200 mg KAR5585 single oral dose, mean, assuming complete conversion of KAR5585 to KAR5417
  Total Excreted (%): 0.111%
[1]; KAR5417 in urine, 400 mg (fasted) KAR5585 single oral dose, mean
  Amount Excreted (Ae): 769 µg
[1]; KAR5417 in urine, 400 mg (fasted) KAR5585 single oral dose, mean, assuming complete conversion of KAR5585 to KAR5417
  Total Excreted (%): 0.202%
[1]; KAR5417 in urine, 400 mg (fed) KAR5585 single oral dose, mean
  Amount Excreted (Ae): 1260 µg
[1]; KAR5417 in urine, 400 mg (fed) KAR5585 single oral dose, mean, assuming complete conversion of KAR5585 to KAR5417
  Total Excreted (%): 0.331%
[1]; KAR5417 in urine, 700 mg KAR5585 single oral dose, mean
  Amount Excreted (Ae): 998 µg
[1]; KAR5417 in urine, 700 mg KAR5585 single oral dose, mean, assuming complete conversion of KAR5585 to KAR5417
  Total Excreted (%): 0.150%
[1]; KAR5417 in urine, 1200 mg KAR5585 single oral dose, mean
  Amount Excreted (Ae): 1170 µg
[1]; KAR5417 in urine, 1200 mg KAR5585 single oral dose, mean, assuming complete conversion of KAR5585 to KAR5417
  Total Excreted (%): 0.102%
[1]; KAR5417 in urine, 2000 mg KAR5585 single oral dose, mean
  Amount Excreted (Ae): 2130 µg
[1]; KAR5417 in urine, 2000 mg KAR5585 single oral dose, mean, assuming complete conversion of KAR5585 to KAR5417
  Total Excreted (%): 0.112%
[1]; plasma and urine, oral, from plasma AUC0-96 and amount recovered in urine, read-out: Renal clearance, range across doses
  CL renal: 2.62 to 4.93 mL/min
[1]; urine and plasma, po, 100 mg, KAR5417, 100 mg KAR5585 single oral dose, mean, read-out: CLR (converted)
  CL renal: 4.93 mL/min
[1]; urine and plasma, po, 200 mg, KAR5417, 200 mg KAR5585 single oral dose, mean, read-out: CLR (converted)
  CL renal: 2.67 mL/min
[1]; urine and plasma, po, 400 mg, KAR5417, 400 mg (fasted) KAR5585 single oral dose, mean, read-out: CLR (converted)
  CL renal: 3.62 mL/min
[1]; urine and plasma, po, 400 mg, KAR5417, 400 mg (fed) KAR5585 single oral dose, mean, read-out: CLR (converted)
  CL renal: 3.18 mL/min
[1]; urine and plasma, po, 700 mg, KAR5417, 700 mg KAR5585 single oral dose, mean, read-out: CLR (converted)
  CL renal: 3.18 mL/min
[1]; urine and plasma, po, 1200 mg, KAR5417, 1200 mg KAR5585 single oral dose, mean, read-out: CLR (converted)
  CL renal: 2.62 mL/min
[1]; urine and plasma, po, 2000 mg, KAR5417, 2000 mg KAR5585 single oral dose, mean, read-out: CLR (converted)
  CL renal: 3.43 mL/min
[2]
  tendency to increase QTcF in a dose-dependent manner: Neither the prodrug (KAR5585) nor the active drug (KAR5417) showed any tendency to increase QTcF in a dose-dependent manner

## CCOC(=O)[C@@H]1CC2(CCN(c3cc(O[C@H](c4ccc(Cl)cc4-c4ccccc4)C(F)(F)F)nc(N)n3)CC2)CN1 [KAR5585, (S)-ethyl 8-(2-amino-6-((R)-1-(5-chloro-[1,1′-biphenyl]-2-yl)-2,2,2-trifluoroethoxy)pyrimidin-4-yl)-2,8-diazaspiro[4.5]decane-3-carboxylate]
[1]; [3]
  Amount Excreted (Ae): 0 µg
  Total Excreted (%): 0%
[1]; [4]
  Amount Excreted (Ae): 0 µg
  Total Excreted (%): 0%
[1]; [5]
  Amount Excreted (Ae): 13.8 µg
  Total Excreted (%): 0.00346%
[1]; [6]
  Amount Excreted (Ae): 0 µg
  Total Excreted (%): 0%
[1]; [7]
  Amount Excreted (Ae): 0 µg
  Total Excreted (%): 0%
[1]; KAR5585 in urine, 2000 mg KAR5585 single oral dose, mean
  Amount Excreted (Ae): 1.50 µg
[1]; urine and plasma, po, 2000 mg, KAR5585, 2000 mg KAR5585 single oral dose, mean, read-out: CLR (converted)
  CL renal: 0.0383 mL/min
[2]
  tendency to increase QTcF in a dose-dependent manner: Neither the prodrug (KAR5585) nor the active drug (KAR5417) showed any tendency to increase QTcF in a dose-dependent manner
